Patent US11446282B2, “Methods of treating mixed dyslipidemia and hypertriglycertdemia” (Kowa Company, Ltd., priority 2017, dated 2022)

System: dyslipidemic patients with renal impairment
Assay: Example 3 phase III 52-week trial: cholesterol in lipoprotein subclasses by HPLC
Assay type: in vivo, human
Details: for CM-C % Change from baseline at Week 52 (LOCF) / CM-C Week 52 (LOCF) / Large HDL-C % Change from baseline at Week 52 (LOCF) / Large HDL-C Week 52 (LOCF) / Large LDL-C % Change from baseline at Week 52 (LOCF) / Large LDL-C Week 52 (LOCF) / Medium HDL-C % Change from baseline at Week 52 (LOCF) / Medium HDL-C Week 52 (LOCF) / Medium LDL-C % Change from baseline at Week 52 (LOCF) / Medium LDL-C Week 52 (LOCF) / Small HDL-C % Change from baseline at Week 52 (LOCF) / Small HDL-C Week 52 (LOCF) / Small LDL-C % Change from baseline at Week 52 (LOCF) / Small LDL-C Week 52 (LOCF) / VLDL-C % Change from baseline at Week 52 (LOCF) / VLDL-C Week 52 (LOCF) / Very large HDL-C % Change from baseline at Week 52 (LOCF) / Very large HDL-C Week 52 (LOCF) / Very small HDL-C % Change from baseline at Week 52 (LOCF) / Very small HDL-C Week 52 (LOCF) / Very small LDL-C % Change from baseline at Week 52 (LOCF) / Very small LDL-C Week 52 (LOCF): 0.2 (0.4) mg/day
Description: This was a multicenter, single-arm, open-label, phase III trial. The inclusion criteria were as follows: (1) patients with dyslipidemia aged >20 years at the time of informed consent; (2) men and postmenopausal women; (3) fasting serum TG≥1.70 mmol/L (150 mg/dL) at two consecutive measurements during screening; and (4) patients who followed dietary and physical exercise guidance for >12 weeks before enrollment.
The major exclusion criteria were as follows: (1) patients with fasting serum TG≥5.65 mmol/L (500 mg/dL) during screening; (2) patients with poorly controlled diabetes mellitus (hemoglobin A1c [HbA1c]≥10.5%); (3) patients with concurrent poorly controlled thyroid disease; (4) men with serum creatinine ≥2.5 mg/dL and women with serum creatinine ≥2.0 mg/dL during screening who were already on statin therapy; (5) patients with eGFR<45 mL/min/1.73 m^2 during screening who were already on statin therapy; (6) patients with CK>5ULN (270 IU/L for men, 150 IU/L for women) during screening who were already on statin therapy; (7) patients with serious liver disease (cirrhosis Child-Pugh Class B or higher); (8) patients with gallstones or serious biliary tract disease; (9) patients who had suffered an acute myocardial infarction or stroke within three months before informed consent; and (10) patients with New York Heart Association class III or IV heart failure.
During the screening period (8 weeks prior to treatment initiation), tests were performed twice to determine patient eligibility. Thereafter, eligible patients orally received pemafibrate 0.2 mg/day (twice daily) for 52 weeks. From week 12 of the treatment period onwards, the investigators were instructed that the dose could be increased from 0.2 mg/day to 0.4 mg/day (twice daily) if there was an inadequate response to the initial dose based on fasting serum TG levels ≥1.70 mmol/L (150 mg/dL). Fasting blood and urine samples were collected at each visit. Blood and urine sample in patients with hemodialysis were collected just before dialysis. LDL-C levels were measured using the direct method. […]
The primary efficacy endpoint was the percent change in fasting serum TG from baseline to the last evaluation point. The primary safety endpoints were the incidence of an AE or ADR occurring after drug administration during the study. Secondary efficacy endpoints included percent changes in lipid variables and changes in inflammation variables at week 52 [using the last-observation-carried-forward (LOCF)]. Secondary safety endpoints included changes in the levels of aspartate aminotransferase (AST), ALT, -GT, ALP, serum creatinine, eGFR, and CK at week 52. Each baseline value was defined as (1) the mean of the corresponding values in the first and second tests at the screening examination and at week 0 of the treatment period for fasting serum TG, HDL-C, total cholesterol (TC), LDL-C, and non-HDL-C; and (2) the value at week 0 of the treatment period for the other secondary variables.
The numbers of patients with AEs and ADRs and the incidences of AEs and ADRs were calculated in the analysis of primary safety endpoints. For the secondary efficacy endpoints, one-sample t-tests or Wilcoxon signed-rank tests [for high-sensitivity C-reactive protein (hsCRP) and IL-1] were performed. The secondary safety endpoints were analyzed with Wilcoxon signed-rank tests. A two-sided significance level of 0.05 was used. SAS v. 9.3 (SAS Institute Inc., Cary, N.C., USA) was used for these analyses. Where indicated, the data are expressed as means±standard deviation (SD).

[1] = lowest eGFR group compared with other groups

## CC[C@@H](Oc1cccc(CN(CCCOc2ccc(OC)cc2)c2nc3ccccc3o2)c1)C(=O)O [Pemafibrate, (2R)-2-[3-({1,3-benzoxazol-2-yl[3-(4-methoxyphenoxy)propyl]amino}methyl)phenoxy]butanoic acid]
All Participants
  CM-C % Change from baseline at Week 52 (LOCF): −64.3%
  CM-C Week 52 (LOCF): 0.039 mmol/L
  Large HDL-C % Change from baseline at Week 52 (LOCF): −9.2%
  Large HDL-C Week 52 (LOCF): 0.115 mmol/L
  Large LDL-C % Change from baseline at Week 52 (LOCF): 63.1%
  Large LDL-C Week 52 (LOCF): 0.748 mmol/L
  Medium HDL-C % Change from baseline at Week 52 (LOCF): 19.3%
  Medium HDL-C Week 52 (LOCF): 0.443 mmol/L
  Medium LDL-C % Change from baseline at Week 52 (LOCF): 17.3%
  Medium LDL-C Week 52 (LOCF): 1.194 mmol/L
  Small HDL-C % Change from baseline at Week 52 (LOCF): 24.2%
  Small HDL-C Week 52 (LOCF): 0.473 mmol/L
  Small LDL-C % Change from baseline at Week 52 (LOCF): −20.6%
  Small LDL-C Week 52 (LOCF): 0.517 mmol/L
  VLDL-C % Change from baseline at Week 52 (LOCF): −24.9%
  VLDL-C Week 52 (LOCF): 0.866 mmol/L
  Very large HDL-C % Change from baseline at Week 52 (LOCF): 4.4%
  Very large HDL-C Week 52 (LOCF): 0.048 mmol/L
  Very small HDL-C % Change from baseline at Week 52 (LOCF): 27.9%
  Very small HDL-C Week 52 (LOCF): 0.181 mmol/L
  Very small LDL-C % Change from baseline at Week 52 (LOCF): −11.6%
  Very small LDL-C Week 52 (LOCF): 0.210 mmol/L
eGFR G1 (≥90)
  CM-C % Change from baseline at Week 52 (LOCF): −54.1%
  CM-C Week 52 (LOCF): 0.064 mmol/L
  Large HDL-C % Change from baseline at Week 52 (LOCF): −14.1%
  Large HDL-C Week 52 (LOCF): 0.107 mmol/L
  Large LDL-C % Change from baseline at Week 52 (LOCF): 54.5%
  Large LDL-C Week 52 (LOCF): 0.724 mmol/L
  Medium HDL-C % Change from baseline at Week 52 (LOCF): 11.4%
  Medium HDL-C Week 52 (LOCF): 0.441 mmol/L
  Medium LDL-C % Change from baseline at Week 52 (LOCF): 15.5%
  Medium LDL-C Week 52 (LOCF): 1.244 mmol/L
  Small HDL-C % Change from baseline at Week 52 (LOCF): 18.1%
  Small HDL-C Week 52 (LOCF): 0.482 mmol/L
  Small LDL-C % Change from baseline at Week 52 (LOCF): −18.0%
  Small LDL-C Week 52 (LOCF): 0.576 mmol/L
  VLDL-C % Change from baseline at Week 52 (LOCF): −24.6%
  VLDL-C Week 52 (LOCF): 0.932 mmol/L
  Very large HDL-C % Change from baseline at Week 52 (LOCF): 0.8%
  Very large HDL-C Week 52 (LOCF): 0.047 mmol/L
  Very small HDL-C % Change from baseline at Week 52 (LOCF): 20.6%
  Very small HDL-C Week 52 (LOCF): 0.186 mmol/L
  Very small LDL-C % Change from baseline at Week 52 (LOCF): −10.3%
  Very small LDL-C Week 52 (LOCF): 0.233 mmol/L
eGFR G2 (≥60 and <90)
  CM-C % Change from baseline at Week 52 (LOCF): −63.9%
  CM-C Week 52 (LOCF): 0.038 mmol/L
  Large HDL-C % Change from baseline at Week 52 (LOCF): −10.9%
  Large HDL-C Week 52 (LOCF): 0.115 mmol/L
  Large LDL-C % Change from baseline at Week 52 (LOCF): 67.7%
  Large LDL-C Week 52 (LOCF): 0.765 mmol/L
  Medium HDL-C % Change from baseline at Week 52 (LOCF): 17.7%
  Medium HDL-C Week 52 (LOCF): 0.448 mmol/L
  Medium LDL-C % Change from baseline at Week 52 (LOCF): 18.7%
  Medium LDL-C Week 52 (LOCF): 1.226 mmol/L
  Small HDL-C % Change from baseline at Week 52 (LOCF): 23.6%
  Small HDL-C Week 52 (LOCF): 0.477 mmol/L
  Small LDL-C % Change from baseline at Week 52 (LOCF): −20.6%
  Small LDL-C Week 52 (LOCF): 0.522 mmol/L
  VLDL-C % Change from baseline at Week 52 (LOCF): −25.3%
  VLDL-C Week 52 (LOCF): 0.834 mmol/L
  Very large HDL-C % Change from baseline at Week 52 (LOCF): 4.1%
  Very large HDL-C Week 52 (LOCF): 0.048 mmol/L
  Very small HDL-C % Change from baseline at Week 52 (LOCF): 30.9%
  Very small HDL-C Week 52 (LOCF): 0.181 mmol/L
  Very small LDL-C % Change from baseline at Week 52 (LOCF): −9.7%
  Very small LDL-C Week 52 (LOCF): 0.211 mmol/L
eGFR G3a-G3b (≥30 and <60)
  CM-C % Change from baseline at Week 52 (LOCF): −67.7%
  CM-C Week 52 (LOCF): 0.038 mmol/L
  Large HDL-C % Change from baseline at Week 52 (LOCF): −4.9%
  Large HDL-C Week 52 (LOCF): 0.124 mmol/L
  Large LDL-C % Change from baseline at Week 52 (LOCF): 59.1%
  Large LDL-C Week 52 (LOCF): 0.720 mmol/L
  Medium HDL-C % Change from baseline at Week 52 (LOCF): 20.6%
  Medium HDL-C Week 52 (LOCF): 0.447 mmol/L
  Medium LDL-C % Change from baseline at Week 52 (LOCF): 18.9%
  Medium LDL-C Week 52 (LOCF): 1.127 mmol/L
  Small HDL-C % Change from baseline at Week 52 (LOCF): 24.6%
  Small HDL-C Week 52 (LOCF): 0.467 mmol/L
  Small LDL-C % Change from baseline at Week 52 (LOCF): −18.9%
  Small LDL-C Week 52 (LOCF): 0.501 mmol/L
  VLDL-C % Change from baseline at Week 52 (LOCF): −22.9%
  VLDL-C Week 52 (LOCF): 0.892 mmol/L
  Very large HDL-C % Change from baseline at Week 52 (LOCF): 5.9%
  Very large HDL-C Week 52 (LOCF): 0.051 mmol/L
  Very small HDL-C % Change from baseline at Week 52 (LOCF): 19.7%
  Very small HDL-C Week 52 (LOCF): 0.180 mmol/L
  Very small LDL-C % Change from baseline at Week 52 (LOCF): −15.8%
  Very small LDL-C Week 52 (LOCF): 0.207 mmol/L
eGFR G4-G5 (<30)
  CM-C % Change from baseline at Week 52 (LOCF): −79.4%
  CM-C Week 52 (LOCF): 0.039 mmol/L
  Large HDL-C % Change from baseline at Week 52 (LOCF): 5.2%
  Large HDL-C Week 52 (LOCF): 0.096 mmol/L
  Large LDL-C % Change from baseline at Week 52 (LOCF): 39.9%
  Large LDL-C Week 52 (LOCF): 0.689 mmol/L
  Medium HDL-C % Change from baseline at Week 52 (LOCF): 53.2%
  Medium HDL-C Week 52 (LOCF): 0.336 mmol/L
  Medium LDL-C % Change from baseline at Week 52 (LOCF): −2.8%
  Medium LDL-C Week 52 (LOCF): 0.920 mmol/L
  Small HDL-C % Change from baseline at Week 52 (LOCF): 39.1%
  Small HDL-C Week 52 (LOCF): 0.395 mmol/L
  Small LDL-C % Change from baseline at Week 52 (LOCF): −38.6%
  Small LDL-C Week 52 (LOCF): 0.381 mmol/L
  VLDL-C % Change from baseline at Week 52 (LOCF): −28.7%
  VLDL-C Week 52 (LOCF): 1.076 mmol/L
  Very large HDL-C % Change from baseline at Week 52 (LOCF): 17.1%
  Very large HDL-C Week 52 (LOCF): 0.044 mmol/L
  Very small HDL-C % Change from baseline at Week 52 (LOCF): 23.5%
  Very small HDL-C Week 52 (LOCF): 0.155 mmol/L
  Very small LDL-C % Change from baseline at Week 52 (LOCF): −33.4%
  Very small LDL-C Week 52 (LOCF): 0.158 mmol/L
Lowest eGFR group
  high-density lipoprotein cholesterol change (observation): increase
[1]
  VLDL-C change (observation): greatest reduction
  chylomicron (CM-C) change (observation): greatest reduction
  small low-density lipoprotein cholesterol change (observation): greatest reduction
